# Laboratory results: patent publication US12303499B2, “Aqueous based pharmaceutical formulations of 1,2-dihydropyridine compounds” (Eisai R&D Management Co., Ltd., priority 2018, dated 2025)
# Tests used:
# Format in all cases: physicochemical
# [1] = pH-solubility of perampanel in SBE-β-CD solutions; conditions: aqueous with cosolvent or surfactant or cyclodextrin
# Method: Studies were conducted to determine the effect of Sulfobutyl Ether Beta Cyclodextrin (SBE-β-CD) concentration and pH on perampanel solubility. In one embodiment, the drug is solubilized at acidic pH in high concentration SBE-β-CD solutions, and then administered at neutral pH in low concentration SBE-β-CD solutions after dilution. The pH range studied for the formulation was 1.5 to 8.0 with a SBE-β-CD concentration range of 20% to 50%. For the diluted administration solution, the pH range studied was 6 to 8 with a SBE-β-CD concentration range of 3% to 9.5%.
# In one embodiment, the drug product is administered after dilution with an IV fluid. The solubility of perampanel in SBE-β-CD was determined under diluted conditions in the neutral pH range. Perampanel concentrations after dilution can be as low as 0.08 mg/mL (8 mg in 100 mL) and as high as 0.24 mg/mL (12 mg in 50 mL).
# [2] = Metastable zone width study (precipitation temperature on cooling); conditions: 40% SBE-β-CD, pH 7
# Method: Meta-Stable Zone Width studies on SBE-β-CD based perampanel formulations containing varying concentrations of perampanel were performed to estimate the meta-stable zone for formulations containing 40% SBE-β-CD at pH 7. Lyophilization provides for long-term storage but requires reconstitution prior to use. When the lyophilized formulation is reconstituted, the solution is in a meta-stable supersaturated state. Meta-stable zone width analysis provides an estimate of how close a formulation is to the meta-stable state boundary.
# Perampanel solutions of varying concentration were prepared in 40% SBE-β-CD at pH 7 and placed in a warm temperature controlled mixing vessel with a LASENTECH® probe to detect precipitation. Although those skilled in the art will recognize that formulations as stated in the prior examples may be prepared by a number of methods, the following method is used to prepare formulations at various perampanel concentrations in 40% SBE-β-CD, pH 7, liquid form, for the trials below. First, a SBE-β-CD solution at pH 1.8 is prepared by adding about 25 ml of water to a beaker, then adding about 20 g of SBE-β-CD. The SBE-β-CD has a water content of 4.7%, is 100% pure, and has a theoretical weight of 20 g/0.953, or 21.0 g. The SBE-β-CD is slowly added with mixing until it has dissolved. The volume is checked to ensure that it is not greater than 40 ml. pH of the solution is adjusted to pH 1.75 with 85% phosphoric acid.
# The weight of perampanel used to prepared the desired concentration is then calculated by dividing 100 mg by the product of (1-[moisture content of perampanel/100]) and (anhydrous purity of perampanel/100). In some examples the moisture content is 3.7% and the anhydrous purity is 99.9%. The calculated amount of perampanel is added to the pH 1.75 solution, then mixed overnight at 40° C. The solution is filtered through a 20 μm filter at 40° C., then warmed to 40° C. At that temperature pH is adjusted to 7. Volume is adjusted to 50 mL with water and mixed.
# The solutions were cooled at defined rates and the temperature at which precipitation occurred was recorded. The potency for each sample was measured by HPLC analysis. The precipitation temperature data were analyzed as per the method described by Sangwal, K. in Crystal Growth and Design, 9, 2 (2009) 942-950.
# A plot of the precipitation temperature of perampanel from a 40% SBE-β-CD, pH 7 solution as a function of drug concentration (mg/mL) and cooling rate (deg C./hr) is provided in FIG. 8. A contour plot (see FIG. 9) and a 3-D plot (see FIG. 10) illustrating the relationship between cooling rate (deg/hr), perampanel concentration (mg/mL) and precipitation temperature were generated using the DESIGN-EXPERT® software, version 7.1.6. The DESIGN-EXPERT® model used the precipitation temperature, cooling rate, concentration and concentration terms to fit a surface to the data. The DESIGN-EXPERT® program was then able to extrapolate the precipitation temperature at zero cooling rate for different drug concentrations with 95% confidence intervals from the fit of the data.
# This extrapolated data was used to prepare FIG. 11, which predicts the meta-stable zone boundary for perampanel in a 40% SBE-β-CD formulation at pH 7. Theoretically, if the drug concentration remains at or below the meta-stable zone boundary, then the drug should not precipitate from solution at the defined temperatures.
# [3] = Aqueous solubility of perampanel without solubilizer; conditions: water without solubilizer, aqueous buffer
# Method: Perampanel has particularly poor water solubility. Perampanel has an aqueous solubility of about 0.001 mg/mL at pH 7 at ambient room temperature. Many attempts to solubilize perampanel in water have failed.
# Perampanel is a basic drug that has poor water solubility. One source of perampanel is FYCOMPA, obtained from Eisai Co. Ltd., of Tokyo. […] Solubility studies investigated numerous different solubilizers ranging from organic cosolvents, surfactants, amino acids, complexing agents, and cyclodextrins. Further solubility studies were conducted as a function of pH with four selected solubilizers in the pH range 2 to 6. Solubility with all four solubilizers decreased as the pH was increased from 2 to 6. (See FIG. 2)
smiles,measurement,setting,value
"N#Cc1ccccc1-c1cc(-c2ccccn2)cn(-c2ccccc2)c1=O [perampanel, 2-(6′-oxo-1′-phenyl-1′,6′-dihydro[2,3′-bipyridin]-5′-yl)benzonitrile]",solubility,"[1]; 3% SBE-β-CD solution, 3% SBE-β-CD, pH 5.5",20 µg/mL
same,solubility,"[1]; 3% SBE-β-CD solution, 3% SBE-β-CD, pH 7",30 µg/mL
same,solubility,"[1]; 3% SBE-β-CD solution, 3% SBE-β-CD, pH 8",30 µg/mL
same,solubility,"[1]; 6% SBE-β-CD solution, 6% SBE-β-CD, pH 5.5",40 µg/mL
same,solubility,"[1]; 6% SBE-β-CD solution, 6% SBE-β-CD, pH 7",30 µg/mL
same,solubility,"[1]; 6% SBE-β-CD solution, 6% SBE-β-CD, pH 8",60 µg/mL
same,solubility,"[1]; 9.5% SBE-β-CD solution, 9.5% SBE-β-CD, pH 5",80 µg/mL
same,solubility,"[1]; 9.5% SBE-β-CD solution, 9.5% SBE-β-CD, pH 7",80 µg/mL
same,Ppt T,"[2]; Exp MC2-102-148, cooling 3.00 deg C./hour, measured 1.99 mg/mL",21.6 deg C.
same,Ppt T,"[2]; Exp MC2-102-149, cooling 1.00 deg C./hour, measured 1.64 mg/mL",31.6 deg C.
same,Ppt T,"[2]; Exp MC2-102-150, cooling 3.00 deg C./hour, measured 1.69 mg/mL",13.7 deg C.
same,Ppt T,"[2]; Exp MC2-102-151, cooling 6.00 deg C./hour, measured 1.63 mg/mL",11.3 deg C.
same,Ppt T,"[2]; Exp MC2-102-153, cooling 6.00 deg C./hour, measured 1.81 mg/mL",12.6 deg C.
same,Ppt T,"[2]; Exp MC2-102-154, cooling 1.00 deg C./hour, measured 1.97 mg/mL",30.5 deg C.
same,Ppt T,"[2]; Exp MC2-102-155, cooling 2.00 deg C./hour, measured 1.68 mg/mL",12.2 deg C.
same,Ppt T,"[2]; Exp MC2-102-157, cooling 4.00 deg C./hour, measured 1.70 mg/mL",17.2 deg C.
same,Ppt T,"[2]; Exp MC2-102-159, cooling 2.00 deg C./hour, measured 1.39 mg/mL",6.4 deg C.
same,Ppt T,"[2]; Exp MC2-102-161, cooling 0.50 deg C./hour, measured 1.79 mg/mL",32.6 deg C.
same,Ppt T,"[2]; Exp MC2-102-162, cooling 1.50 deg C./hour, measured 1.74 mg/mL",21.7 deg C.
same,Ppt T,"[2]; Exp MC2-102-163, cooling 0.75 deg C./hour, measured 1.51 mg/mL",20.3 deg C.
same,Ppt T,"[2]; Exp MC2-102-164, cooling 0.15 deg C./hour, measured 1.74 mg/mL",36.6 deg C.
same,Ppt T,"[2]; Exp MC2-102-165, cooling 0.30 deg C./hour, measured 1.80 mg/mL",34.8 deg C.
same,Ppt T,"[2]; Exp MC2-102-166, cooling 0.75 deg C./hour, measured 1.78 mg/mL",32.1 deg C.
same,Ppt T,"[2]; Exp MC2-102-168, cooling 1.00 deg C./hour, measured 1.52 mg/mL",9.5 deg C.
same,Ppt T,"[2]; Exp MC2-102-169, cooling 0.50 deg C./hour, measured 1.43 mg/mL",29.5 deg C.
same,Ppt T,"[2]; Exp MC2-102-170, cooling 0.30 deg C./hour, measured 1.43 mg/mL",29.6 deg C.
same,Ppt T,"[2]; Exp MC2-102-172, cooling 0.15 deg C./hour, measured 1.53 mg/mL",33.3 deg C.
same,Ppt T,"[2]; Exp MC2-102-174, cooling 0.40 deg C./hour, measured 1.51 mg/mL",30.9 deg C.
same,Ppt T,"[2]; Exp MC2-102-178, cooling 0.22 deg C./hour, measured 1.42 mg/mL",33.7 deg C.
same,Ppt T,"[2]; Exp MC2-102-181, cooling 0.10 deg C./hour, measured 1.46 mg/mL",33.5 deg C.
same,Ppt T,"[2]; Exp MC2-102-182, cooling 0.22 deg C./hour, measured 1.77 mg/mL",35.5 deg C.
same,Ppt T,"[2]; Exp MC2-102-185, cooling 0.40 deg C./hour, measured 1.30 mg/mL",17.4 deg C.
same,Ppt T,"[2]; Exp MC2-102-187, cooling 0.30 deg C./hour, measured 1.10 mg/mL",10.2 deg C.
same,Ppt T,"[2]; Exp MC2-102-192, cooling 0.20 deg C./hour, measured 1.21 mg/mL",22.9 deg C.
same,Ppt T,"[2]; Exp MC2-102-193, cooling 0.10 deg C./hour, measured 1.26 mg/mL",24.1 deg C.
same,Ppt T,"[2]; Exp MC2-102-197, cooling 0.40 deg C./hour, measured 1.06 mg/mL",2.6 deg C.
same,Ppt T,"[2]; Exp MC2-1108-001, cooling 0.40 deg C./hour, measured 0.97 mg/mL",12.8 deg C.
same,solubility,"[3]; 22° C., pH 2",30 µg/mL
same,solubility,"[3]; 22° C., pH 7",~1 µg/mL
same,solubility,"[3]; pH 7, ambient room temperature",~1 µg/mL
